Laboratory results from patent US20210038515A1 (Azurity Pharmaceuticals, Inc., priority 2014, published 2021).

Tests used:
[1] = tested on: Bifidobacterium adolescentis; test: Agar dilution test, other anaerobic organisms; format: cell-based; settings: for MIC, AV (average): average of triplicate; for MIC, VAN-1: replicate 1; for MIC, VAN-2: replicate 2; for MIC, VAN-3: replicate 3
Bacteroides fragilis = test: Agar dilution test, other anaerobic organisms; format: cell-based; settings: for MIC, AV (average): average of triplicate; for MIC, VAN-1: replicate 1; for MIC, VAN-2: replicate 2; for MIC, VAN-3: replicate 3

Question: Which results are given for `CN[C@H](CC(C)C)C(=O)N[C@H]1C(=O)N[C@@H](CC(N)=O)C(=O)N[C@H]2C(=O)N[C@H]3C(=O)N[C@H](C(=O)N[C@H](C(=O)O)c4cc(O)cc(O)c4-c4cc3ccc4O)[C@H](O)c3ccc(c(Cl)c3)Oc3cc2cc(c3O[C@@H]2O[C@H](CO)[C@@H](O)[C@H](O)[C@H]2O[C@H]2C[C@](C)(N)[C@H](O)[C@H](C)O2)Oc2ccc(cc2Cl)[C@H]1O.Cl` [Sigma]?
Answer: MIC, AV (average) ([1]; Bif. adolescentis RMA 21317): 1 µg/mL; MIC, VAN-1 ([1]; Bif. adolescentis RMA 21317): 1 µg/mL; MIC, VAN-2 ([1]; Bif. adolescentis RMA 21317): 1 µg/mL; MIC, VAN-3 ([1]; Bif. adolescentis RMA 21317): 1 µg/mL; MIC, AV (average) ([1]; Bif. adolescentis RMA 21531): 3 µg/mL; MIC, VAN-1 ([1]; Bif. adolescentis RMA 21531): 0.5 µg/mL; MIC, VAN-2 ([1]; Bif. adolescentis RMA 21531): 1 µg/mL; MIC, VAN-3 ([1]; Bif. adolescentis RMA 21531): 1 µg/mL; MIC, AV (average) ([1]; Bif. adolescentis RMA 21551): 1 µg/mL; MIC, VAN-1 ([1]; Bif. adolescentis RMA 21551): 1 µg/mL; MIC, VAN-2 ([1]; Bif. adolescentis RMA 21551): 1 µg/mL; MIC, VAN-3 ([1]; Bif. adolescentis RMA 21551): 1 µg/mL; MIC, AV (average) ([1]; Bif. adolescentis RMA 21680): 1 µg/mL; MIC, VAN-1 ([1]; Bif. adolescentis RMA 21680): 1 µg/mL; MIC, VAN-2 ([1]; Bif. adolescentis RMA 21680): 1 µg/mL; MIC, VAN-3 ([1]; Bif. adolescentis RMA 21680): 1 µg/mL; MIC, AV (average) ([1]; Bif. adolescentis RMA 21703): 1 µg/mL; MIC, VAN-1 ([1]; Bif. adolescentis RMA 21703): 1 µg/mL; MIC, VAN-2 ([1]; Bif. adolescentis RMA 21703): 1 µg/mL; MIC, VAN-3 ([1]; Bif. adolescentis RMA 21703): 1 µg/mL; MIC, AV (average) (Bacteroides fragilis; B. fragilis RMA 26978): >16 µg/mL; MIC, VAN-1 (Bacteroides fragilis; B. fragilis RMA 26978): >16 µg/mL; MIC, VAN-2 (Bacteroides fragilis; B. fragilis RMA 26978): >16 µg/mL; MIC, VAN-3 (Bacteroides fragilis; B. fragilis RMA 26978): >16 µg/mL; MIC, AV (average) (Bacteroides fragilis; B. fragilis RMA 26979): >16 µg/mL; MIC, VAN-1 (Bacteroides fragilis; B. fragilis RMA 26979): >16 µg/mL; MIC, VAN-2 (Bacteroides fragilis; B. fragilis RMA 26979): >16 µg/mL; MIC, VAN-3 (Bacteroides fragilis; B. fragilis RMA 26979): >16 µg/mL; MIC, AV (average) (Bacteroides fragilis; B. fragilis RMA 26980): >16 µg/mL; MIC, VAN-1 (Bacteroides fragilis; B. fragilis RMA 26980): >16 µg/mL; MIC, VAN-2 (Bacteroides fragilis; B. fragilis RMA 26980): >16 µg/mL; MIC, VAN-3 (Bacteroides fragilis; B. fragilis RMA 26980): >16 µg/mL; MIC, AV (average) (Bacteroides fragilis; B. fragilis RMA 26981): >16 µg/mL; MIC, VAN-1 (Bacteroides fragilis; B. fragilis RMA 26981): >16 µg/mL; MIC, VAN-2 (Bacteroides fragilis; B. fragilis RMA 26981): >16 µg/mL; MIC, VAN-3 (Bacteroides fragilis; B. fragilis RMA 26981): >16 µg/mL; MIC, AV (average) (Bacteroides fragilis; B. fragilis RMA 26982): >16 µg/mL; MIC, VAN-1 (Bacteroides fragilis; B. fragilis RMA 26982): >16 µg/mL; MIC, VAN-2 (Bacteroides fragilis; B. fragilis RMA 26982): >16 µg/mL; MIC, VAN-3 (Bacteroides fragilis; B. fragilis RMA 26982): >16 µg/mL
